Reference: patent US20110105435A1, “THERAPY OPTION FOR RECOLORATION OF HAIR VIA BISPHOSPHONATES BY PHYSIOLOGICAL REPIGMENTATION WITH AGE-RELATED AND/OR PREMATURE "GRAYED" PATIENTS” (priority 2007, published 2011)

Test system: scalp hair
Experiment: Case observation: scalp hair recoloration in a myeloma patient on zoledronate monotherapy
Format: in vivo, human
Settings: Zometa 4 mg i.v. once monthly
Experimental: […] Multiple myeloma is a non-Hodgkin lymphoma and represents one of the most frequent malignant bone diseases.
Multiple myeloma in Stage I according to Durie and Salmon without osteolytic activity was diagnosed in the patient in November 2006. Since Stage I myeloma without clinically relevant symptoms are generally not aggressively treated with cytotostatic substances, the patient was included in an experimental monotherapy scheme applying Zometa® (active ingriedient: zoledronate), 4 mg i.v. in calcium-free infusion solution on a once monthly basis.
Zoledronate treatment is pursued for 6 months with a total of 6 therapy cycles until progression of myeloma (proliferation of plasma cell population in the bone marrow) made a more aggressive therapy approach necessary.
A suprising side-effect was observed:
The patient reported that they were black-haired during their teens and twens.
Since zoledronate was applied in monotherapy and no other relevant measures were deployed, the surprising change in hair coloration in the respective patient was caused by the bisphosphonate therapy of the underlying myeloma disease.

For `O=P(O)(O)C(O)(Cn1ccnc1)P(=O)(O)O` [zoledronate], the “change in hair coloration (repigmentation of white scalp hair)” value (Stage I multiple myeloma patient, completely white-haired at therapy induction, 6 cycles, monotherapy) was “increasingly developed black scalp hair” and the “duration of treatment until white appearance switched to natural-looking dark-greyish shape” value (myeloma patient) was 3-4 months.
